Experiments:
[1] = test system: TF1 cells; assay: Biological activity of maximal compound dosages in TF1 cells; format: cell-based; settings: 10 μM dose
Procedure: (§1) The stock for each compound was at 10 mM and were diluted to 100 μM with RMPI+GCMSF (2% DMSO). Cells were collected and resuspended in 8 mL of RPMI+GMCSF at a concentration of 1×10^6 cells/mL. For the TF1 cells, at each well of a 6-well plate were added 1 mL of cells, 300 μL of 100 μM compound dilution, and 1.7 mL of RMPI+GCMSF+1.5% DMSO (1% final DMSO concentration in 3 mL total). One mL of the CI-CB-CD34+ cells, 300 μL of 100 μM compound dilution, and 700 μL of RMPI+GCMSF ([…]) were added to each well of a 6-well plate.
(§2) Compound dilutions were performed as described in Example 1. […] In a 6-well format, there were 1 million cells/well=1 million cells/ml=1000 cells/pl. […].

[2] = test system: CI-CB-CD34+ cells; assay: Biological activity of maximal compound dosages in CI-CB-CD34+ cells; format: cell-based, human; settings: 10 μM dose
Procedure: as §1, §2

[3] = test system: primary human hepatocytes
[4] = test system: primary human hepatocytes; assay: RNA-seq of primary human hepatocytes treated with 39 small molecules (pilot and validation); settings: for significant modulation of gene expression: RNA-seq, p-value≤0.05, primary human hepatocytes, the modulated genes are listed in the block; for Number (#) of genes having significantly changed expression: pilot RNA-seq study of Example 2, significance: FPKM≥0.5, log 2(fold change)≥1, q-value ≤0.05

COc1ccc(C2=N[C@@H](c3ccc(Cl)cc3)[C@@H](c3ccc(Cl)cc3)N2C(=O)N2CCNC(=O)C2)c(OC(C)C)c1 (racemic) [Nutlin 3]
response of TF1 cells (biological activity, cell viability) [1]: did not significantly respond
biological activity of CD34+ cells (cell viability) [2]: reduced biological activity

Cc1ccc(-c2cn3c4c(sc3n2)CCCC4)cc1 [Cyclic-pifithrin alpha, Cyclic Pifithrin-a]
response of TF1 cells (biological activity, cell viability) [1]: did not significantly respond

CC(C)(S)[C@@H](N)C(=O)O [MT-741, Penicillamine(D-)]
Log2 fold changes in gene expression: CYP2C19 [3]: 0.04
Log2 fold changes in gene expression: CYP3A4 [3]: −0.08
Log2 fold changes in gene expression: ACADVL ([4]; RNA-seq validation, duplicates, gene ACADVL): −0.04
Log2 fold changes in gene expression: ACAT2 ([4]; RNA-seq validation, duplicates, gene ACAT2): −0.05
Log2 fold changes in gene expression: ACSL1 ([4]; RNA-seq validation, duplicates, gene ACSL1): 0
Log2 fold changes in gene expression: ACSL5 ([4]; RNA-seq validation, duplicates, gene ACSL5): −0.05
Log2 fold changes in gene expression: AGPAT2 ([4]; RNA-seq validation, duplicates, gene AGPAT2): −0.11
Log2 fold changes in gene expression: AGTR1 ([4]; RNA-seq validation, duplicates, gene AGTR1): −0.04
Log2 fold changes in gene expression: AHSG ([4]; RNA-seq validation, duplicates, gene AHSG): 0.03
Log2 fold changes in gene expression: ALAS1 ([4]; RNA-seq validation, duplicates, gene ALAS1): −0.11
Log2 fold changes in gene expression: AMACR ([4]; RNA-seq validation, duplicates, gene AMACR): −0.24
Log2 fold changes in gene expression: ARG1 ([4]; RNA-seq validation, duplicates, gene ARG1): 0.01
Log2 fold changes in gene expression: CA2 ([4]; RNA-seq validation, duplicates, gene CA2): −0.18
Log2 fold changes in gene expression: CA12 ([4]; RNA-seq validation, duplicates, gene CA12): −0.02
Log2 fold changes in gene expression: CIDEC ([4]; RNA-seq validation, duplicates, gene CIDEC): −0.24
Log2 fold changes in gene expression: COL1A1 ([4]; RNA-seq validation, duplicates, gene COL1A1): 0.14
Log2 fold changes in gene expression: CPS1 ([4]; RNA-seq validation, duplicates, gene CPS1): −0.12
Log2 fold changes in gene expression: CPT1A ([4]; RNA-seq validation, duplicates, gene CPT1A): 0.04
Log2 fold changes in gene expression: CPT2 ([4]; RNA-seq validation, duplicates, gene CPT2): −0.22
Log2 fold changes in gene expression: CYP21A2 ([4]; RNA-seq validation, duplicates, gene CYP21A2): 0.04
Log2 fold changes in gene expression: ECH1 ([4]; RNA-seq validation, duplicates, gene ECH1): −0.14
Log2 fold changes in gene expression: ENO3 ([4]; RNA-seq validation, duplicates, gene ENO3): −0.17
Log2 fold changes in gene expression: ETFDH ([4]; RNA-seq validation, duplicates, gene ETFDH): −0.12
Log2 fold changes in gene expression: FABP1 ([4]; RNA-seq validation, duplicates, gene FABP1): −0.22
Log2 fold changes in gene expression: G6PC ([4]; RNA-seq validation, duplicates, gene G6PC): 0.14
Log2 fold changes in gene expression: GHR ([4]; RNA-seq validation, duplicates, gene GHR): −0.13
Log2 fold changes in gene expression: GLA ([4]; RNA-seq validation, duplicates, gene GLA): −0.06
Log2 fold changes in gene expression: HGD ([4]; RNA-seq validation, duplicates, gene HGD): −0.16
Log2 fold changes in gene expression: HMGCR ([4]; RNA-seq validation, duplicates, gene HMGCR): 0.05
Log2 fold changes in gene expression: HMGCS2 ([4]; RNA-seq validation, duplicates, gene HMGCS2): −0.03
Log2 fold changes in gene expression: HMOX1 ([4]; RNA-seq validation, duplicates, gene HMOX1): 0.05
Log2 fold changes in gene expression: HOGA1 ([4]; RNA-seq validation, duplicates, gene HOGA1): 0
Log2 fold changes in gene expression: HPGD ([4]; RNA-seq validation, duplicates, gene HPGD): −0.06
Log2 fold changes in gene expression: IFT27 ([4]; RNA-seq validation, duplicates, gene IFT27): −0.01
Log2 fold changes in gene expression: LDHA ([4]; RNA-seq validation, duplicates, gene LDHA): 0.08
Log2 fold changes in gene expression: LPIN2 ([4]; RNA-seq validation, duplicates, gene LPIN2): 0.17
Log2 fold changes in gene expression: MOGAT2 ([4]; RNA-seq validation, duplicates, gene MOGAT2): 0.13
Log2 fold changes in gene expression: NCF2 ([4]; RNA-seq validation, duplicates, gene NCF2): −0.19
Log2 fold changes in gene expression: PCSK9 ([4]; RNA-seq validation, duplicates, gene PCSK9): 0.17
Log2 fold changes in gene expression: POR ([4]; RNA-seq validation, duplicates, gene POR): −0.14
Log2 fold changes in gene expression: RMRP ([4]; RNA-seq validation, duplicates, gene RMRP): −1.45
Log2 fold changes in gene expression: SLC2A2 ([4]; RNA-seq validation, duplicates, gene SLC2A2): −0.22
Log2 fold changes in gene expression: SLC6A6 ([4]; RNA-seq validation, duplicates, gene SLC6A6): −0.35
Log2 fold changes in gene expression: SLC25A20 ([4]; RNA-seq validation, duplicates, gene SLC25A20): −0.31
Log2 fold changes in gene expression: SLC37A4 ([4]; RNA-seq validation, duplicates, gene SLC37A4): 0.09
Log2 fold changes in gene expression: SLC51B ([4]; RNA-seq validation, duplicates, gene SLC51B): −0.08
Log2 fold changes in gene expression: SULT2A1 ([4]; RNA-seq validation, duplicates, gene SULT2A1): −0.18
Log2 fold changes in gene expression: TAT ([4]; RNA-seq validation, duplicates, gene TAT): 0.09
Log2 fold changes in gene expression: TDO2 ([4]; RNA-seq validation, duplicates, gene TDO2): −0.14
Log2 fold changes in gene expression: TMEM135 ([4]; RNA-seq validation, duplicates, gene TMEM135): −0.16
Log2 fold changes in gene expression: TNFSF11 ([4]; RNA-seq validation, duplicates, gene TNFSF11): 0.04
Log2 fold changes in gene expression: VLDLR ([4]; RNA-seq validation, duplicates, gene VLDLR): 0.09
significant modulation of gene expression [4]: significantly (p-value≤0.05) modulate
Number (#) of genes having significantly changed expression [4]: 9

C[C@H](CS)C(=O)N1CCC[C@H]1C(=O)O [MT-835, Captopril]
Log2 fold changes in gene expression: CYP2C19 [3]: 0.07
Log2 fold changes in gene expression: CYP3A4 [3]: 0.02
significant modulation of gene expression [4]: significantly (p-value≤0.05) modulate
Number (#) of genes having significantly changed expression [4]: 12

COc1ccc(Cc2nccc3cc(OC)c(OC)cc23)cc1OC [MT-913, Papaverine]
Log2 fold changes in gene expression: CYP2C19 [3]: 0.09
Log2 fold changes in gene expression: CYP3A4 [3]: 0.06
significant modulation of gene expression [4]: significantly (p-value≤0.05) modulate
Number (#) of genes having significantly changed expression [4]: 12

COc1ccc(C2=N[C@@H](c3ccc(Cl)cc3)[C@@H](c3ccc(Cl)cc3)N2C(=O)N2CCNC(=O)C2)c(OC(C)C)c1 [Nutlin 3a]
response of TF1 cells (biological activity, cell viability) [1]: did not significantly respond
biological activity of CD34+ cells (cell viability) [2]: reduced biological activity

Cc1ccc(C(=O)Cn2c3c(sc2=N)CCCC3)cc1 [Pifithrin alpha, Pifithrin-α]
response of TF1 cells (biological activity, cell viability) [1]: did not significantly respond
biological activity of CD34+ cells (cell viability) [2]: little or no effect
